Test [1] addresses T1, human hNET (Homo sapiens, UniProt P23975).
T1 construct: expressed in transfected cells; host or cells: MDCK-Net6 (MDCK cells stably transfected with hNET)
The experiment in a line: Functional norepinephrine reuptake assay, Procedure A (50,000 cells/well). The test is classed as cell-based. The note with it: MDCK-Net6 cells, 50,000 cells/well; for pIC50: 16 nM 3H-norepinephrine, read-out: Procecedure A NE Uptake IC50. How it is done:
For screening, 25 μl aliquots of compound solution at a 1 μM or 10 μM final concentration was delivered directly to cells.
For IC50 determinations, stock compounds were prepared at 10 mM from powder. The stock solution was diluted according to compound testing range. Typically, the compound testing range was from 6 nM to 6 μM by half log dilutions. On the day of assay, 25 μl of compound solution at the specified concentrations were added to the plates containing cells. A DMSO stock of desipramine was prepared at 10 mM in DMSO and diluted for a final concentration of 20 μM to determine the non-specific reuptake.
MDCK-Net6 cells, stably transfected with human hNET (Pacholczyk, 1991), were maintained in growth media [high glucose DMEM (Gibco Cat. 11995), 10% FBS (dialyzed, heat-inactivated, Sigma, dialysed, heat inactivated, Lot# K0922 or equivalent) 1xPen/Strep, and 500 μg/ml G418 (Gibco Cat. 10131)]. Cells were plated at 300,000/T75 flask and cells split twice weekly.
Cells were plated at 50,000 cells/well (Procedure A) or 6,000 cells/well (Procedure B) on day 1 in BD Falcon Microtest 96-well sterile cell culture plates, Optilux White/Clear Bottom TC plate (VWR; # 62406-466 or equivalent) in growth media and maintained in a cell incubator (37° C., 5% CO2). On Day 2, cells were removed from the cell incubator and the growth media is replaced by 200 μl of assay buffer (25 mm HEPES 120 mM NaCL; 5 mM KCl; 2.5 mM CaCl2; 1.2 mM MgSO4; 2 mg/ml glucose (pH 7.4, 37° C.)) containing 0.2 mg/ml ascorbic acid and 1 μM parglyine. For screening, 25 μl of compound in 4% DMSO was added directly to each well and the plate was incubated for 5 minutes (37° C.). To initiate the norepinephrine reuptake, 16 nM (final concentration) of ^3H norepinephrine (specific activity; 40-80 Ci/mmol) in assay buffer was delivered in 25 μl aliquots to each well, and the plates were incubated for 5 min at 37° C. The reaction is aspirated from the plate and the cells washed with 250 μl of 50 mM Tris Buffer (4° C.). The plates were left to dry for 1 hour. The cells were lysed using 0.25 M NaOH solution then placed on a shake table and vigorously shaken for 10 minutes. After cell lysis, 100 μl of Microscint 20 (PerkinElmer; #87-051101) was added to the plates and the plates were sealed with film tape and replaced on the shake table for a minimum of 10 minutes. The plates were counted in a TopCount counter (PerkinElmer).
For screening single point determinations, each compound plate contained at least 3 control wells (maximum NE reuptake determinant) and 3 non-specific wells determined by adding 20 μM of desipramine (minimum NE reuptake determinant). Determination of active compounds was calculated using a Microsoft Excel spread sheet applying the following formula:
% inhibition=[1−((mean cpm test compound wells−mean cpm non-specific wells)/(mean cpm control wells−mean cpm non-specific wells))]×100
For IC50 determination, raw cpm values were generated in a data file from the TopCount counter. The data was organized using the Microsoft Excel and transferred into PRIZM graphing and statistical program, which calculated the estimated IC50 value. Calculation of IC50 values was made using non-linear regression analysis with a sigmoidal dose response with variable slope. The statistical program used wells containing ^3H norepinephrine only as the maximal NE reuptake determinant and wells containing ^3H norepinephrine plus 20 μM desipramine (AHR-9543) as the minimal NE reuptake determinant (non-specific determinant). Estimation of the IC50 value was completed on a log scale and the line was fit between the maximal and minimal NE reuptake values.

The target of test [2] is T1, human hNET. The experiment in a line: Functional norepinephrine reuptake assay, Procedure B (6,000 cells/well). The class given is cell-based. As to conditions: MDCK-Net6 cells, 6,000 cells/well, 16 nM 3H-norepinephrine; read-out: Procedure B hNET uptake IC50. Put shortly: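 MDCK cells stably expressing human NET, 6,000 cells/well, in HEPES-buffered saline pH 7.4 with ascorbic acid and 1 μM pargyline; compound preincubated 5 min at 37° C. ^3H norepinephrine uptake counted by scintillation; non-specific defined with 20 μM desipramine. IC50 from variable-slope sigmoidal nonlinear fit.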

pIC50: −log10 of the molar value.

Usually pIC50 stands for −log10 of the IC50, conventionally taken in molar units.

T1 sequence (P23975 whole entry): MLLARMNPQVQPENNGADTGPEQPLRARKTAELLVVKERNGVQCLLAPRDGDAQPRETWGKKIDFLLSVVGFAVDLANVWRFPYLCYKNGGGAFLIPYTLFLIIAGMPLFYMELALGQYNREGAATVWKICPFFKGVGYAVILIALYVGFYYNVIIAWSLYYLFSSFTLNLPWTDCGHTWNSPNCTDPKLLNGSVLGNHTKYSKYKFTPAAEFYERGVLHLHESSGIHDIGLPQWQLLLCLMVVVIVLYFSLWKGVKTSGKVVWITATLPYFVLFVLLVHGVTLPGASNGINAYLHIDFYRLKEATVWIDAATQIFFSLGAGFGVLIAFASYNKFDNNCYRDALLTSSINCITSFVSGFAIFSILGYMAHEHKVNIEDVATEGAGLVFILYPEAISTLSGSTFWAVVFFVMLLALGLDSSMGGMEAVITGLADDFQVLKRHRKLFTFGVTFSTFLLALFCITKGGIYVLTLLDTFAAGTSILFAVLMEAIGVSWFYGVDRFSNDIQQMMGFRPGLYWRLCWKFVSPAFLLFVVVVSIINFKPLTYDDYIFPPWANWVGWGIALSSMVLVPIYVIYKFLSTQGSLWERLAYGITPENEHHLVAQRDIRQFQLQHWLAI

Take `CNCCCC1Oc2ccccc2N(c2ccccc2)S1(=O)=O` (stereo not drawn) [Example 12, 3-(2,2-dioxido-1-phenyl-1H-4,2,1-benzoxathiazin-3-yl)-N-methylpropan-1-amine]: the figures for the negative-log IC50 (pIC50) at human hNET [1] and on human hNET [2] were 7.48 and 9.15, respectively.

Consider `CCNCCCC1Cc2ccccc2N(c2ccccc2)S1(=O)=O` (stereo not drawn) [Example 4, 3-(2,2-dioxido-1-phenyl-3,4-dihydro-1H-2,1-benzothiazin-3-yl)-N-ethylpropan-1-amine], for which the pIC50 on human hNET [1] was 5.73.

Regarding `O=S1(=O)C(CCCNCc2ccccc2)Cc2ccccc2N1c1ccccc1` (stereo not drawn) [Example 7, N-benzyl-3-(2,2-dioxido-1-phenyl-3,4-dihydro-1H-2,1-benzothiazin-3-yl)propan-1-amine], on human hNET [1], the pIC50 is 5.52.

As for `O=S1(=O)C(CCCNC2CCCCC2)Cc2ccccc2N1c1ccccc1` (stereo not drawn) [Example 8, N-[3-(2,2-dioxido-1-phenyl-3,4-dihydro-1H-2,1-benzothiazin-3-yl)propyl]cyclohexanamine], the “Procedure A [3H] NE Uptake Displacement %” value on human hNET [1] (Conc 2000 nM) amounted to 17%.

For `CNCCCC1Cc2ccccc2N(c2ccccc2)S1(=O)=O` (stereo not drawn) [Example 1, 3-(2,2-dioxido-1-phenyl-3,4-dihydro-1H-2,1-benzothiazin-3-yl)-N-methylpropan-1-amine], the pIC50 at human hNET [1] was 7.47; on human hNET [2] it was 7.73.

`O=S1(=O)C(CCCN2CCCC2)Cc2ccccc2N1c1ccccc1` (stereo not drawn) [Example 6, 1-phenyl-3-(3-pyrrolidin-1-ylpropyl)-3,4-dihydro-1H-2,1-benzothiazine 2,2-dioxide]: the pIC50 at human hNET [1] was 6.88.

For the compound `CC(C)NCCCC1Cc2ccccc2N(c2ccccc2)S1(=O)=O` (stereo not drawn) [Example 5, 3-(2,2-dioxido-1-phenyl-3,4-dihydro-1H-2,1-benzothiazin-3-yl)-N-isopropyl propan-1-amine], the pIC50 on human hNET [1] was 6.78.
